Measured values reported in patent publication US20250163026A1, “Deuterium-Enriched Nirmatrelvir as SARS-CoV-2 Mpro Inhibitor for the Treatment of COVID-19” (priority 2023, published 2025).

Test system: human coronavirus M^Pro
Experiment: Biochemical determination for human coronavirus M^pro assays
Settings: at 30 μM, control compound, 1% DMSO
Method: The respective human coronavirus M^Pro in assay buffer (20 mM Tris-HCl, pH 7.3, 100 mM NaCl, 1 mM EDTA, 5 mM TCEP) and 0.1% BSA is added to assay-ready plates containing test compound (compound the present invention, Formula I). The enzymatic reaction is then immediately initiated with the addition of 5 μL substrate in assay buffer. Initial rates are measured by following the fluorescence of the cleaved substrate using a Spectramax (Molecular Devices) fluorescence plate reader in the kinetic format.
Test compounds (compounds of the present invention, compounds of Formula I) are tested at final concentrations up to […] in 1% DMSO and compared to the broad-spectrum antiviral compound GC376 [Y. Kim, S. Lovell, et al, Broad-spectrum antivirals against 3C or 3C-like proteases of picornaviruses, noroviruses, and coronaviruses. J. Virol. […] The reaction is allowed to progress for 60 minutes at 23° C. after which the plate is read on a Molecular Devices Spectramax M2e reader at an Ex/Em of 340 nm/490 nm.
Percent inhibition values are calculated based on control wells containing DMSO only (0% inhibition) and wells containing a control compound (100% inhibition). […] Percent activity values are calculated based on control wells containing no compound (100% activity) and wells containing the broad-spectrum antiviral compound GC376 (0% activity). […]

## CC(C)C[C@H](NC(=O)OCc1ccccc1)C(=O)N[C@@H](C[C@@H]1CCNC1=O)C(O)S(=O)(=O)[O-].[Na+] (stereo partly shown) [GC376]
  inhibition: 100%
